In brackets after ≈: the same amount, converted by molar mass.
Columns and labels:
Assay in all cases: MIC determination
Type in all cases: cell-based
[1] = tested on: Ab strain #294 (CDC and FDA AR Bank); conditions: Acinetobacter baumannii; Ab AR Bank #294
Protocol: (§1) All bacterial strains listed above were stored at −80° C. All strains were streaked on Mueller-Hinton (MH) plates and allowed to grow at 37° C. overnight. Enough colonies were scraped from the plate and suspended in MH broth with vortexing to reach an attenuance at 600 nm (OD600) of ˜0.5. The resulting culture was diluted 1:1000 and added to the prepared serially doubly diluted compound solutions in 96-well plates. For M. smegmatis, a 1:100 dilution of the bacteria was done in MH. All MIC values were determined using 96-well plates with low evaporation seals at least in duplicate. For each row, one well was reserved for sterile control (which consisted of 200 μL of MH medium) and another well was reserved for growth control (which consisted of 100 μL of MH medium seeded with 100 μL of bacterial culture).
(§2) Then all 46 compounds were tested against a broad panel of all 41 Ab strains from the CDC and FDA Antibiotic Resistance (AR) Isolate Bank (Table 2; data shown for 2 representative compounds), which were all highly multidrug-resistant strains, including those resistant to colistin. […] The activity of the monohydrazides was not dependent on the extent (number of resistance mutations) or severity (antibiotic MIC) of resistance. All conclusions made from Table 1 remained valid for all compounds against these 41 additional Ab strains. […] This mechanism of action will be elucidated in the proposed studies.

[2] = tested on: Ab strain #310 (CDC and FDA AR Bank); conditions: Acinetobacter baumannii; Ab AR Bank #310
Protocol: as §1, §2

[3] = tested on: Ab strain #289 (CDC and FDA AR Bank); conditions: Acinetobacter baumannii; Ab AR Bank #289
Protocol: as §1, §2

[4] = tested on: Ab strain #275 (CDC and FDA AR Bank); conditions: Acinetobacter baumannii; Ab AR Bank #275
Protocol: as §1, §2

[5] = tested on: Ab strain #307 (CDC and FDA AR Bank); conditions: Acinetobacter baumannii; Ab AR Bank #307
Protocol: as §1, §2

[6] = tested on: Ab strain #311 (CDC and FDA AR Bank); conditions: Acinetobacter baumannii; Ab AR Bank #311
Protocol: as §1, §2

[7] = tested on: Ab strain #282 (CDC and FDA AR Bank); conditions: Acinetobacter baumannii; Ab AR Bank #282
Protocol: as §1, §2

[8] = tested on: Ab strain #280 (CDC and FDA AR Bank); conditions: Acinetobacter baumannii; Ab AR Bank #280
Protocol: as §1, §2

[9] = tested on: Ab strain #293 (CDC and FDA AR Bank); conditions: Acinetobacter baumannii; Ab AR Bank #293
Protocol: as §1, §2

[10] = tested on: Ab strain #304 (CDC and FDA AR Bank); conditions: Acinetobacter baumannii; Ab AR Bank #304
Protocol: as §1, §2

[11] = tested on: Ab strain #305 (CDC and FDA AR Bank); conditions: Acinetobacter baumannii; Ab AR Bank #305
Protocol: as §1, §2

[12] = tested on: Ab strain #288 (CDC and FDA AR Bank); conditions: Acinetobacter baumannii; Ab AR Bank #288
Protocol: as §1, §2

[13] = tested on: Ab strain #309 (CDC and FDA AR Bank); conditions: Acinetobacter baumannii; Ab AR Bank #309
Protocol: as §1, §2

[14] = tested on: Ab strain #297 (CDC and FDA AR Bank); conditions: Acinetobacter baumannii; Ab AR Bank #297
Protocol: as §1, §2

[15] = tested on: Ab strain #312 (CDC and FDA AR Bank); conditions: Acinetobacter baumannii; Ab AR Bank #312
Protocol: as §1, §2

[16] = tested on: Ab strain #278 (CDC and FDA AR Bank); conditions: Acinetobacter baumannii; Ab AR Bank #278
Protocol: as §1, §2

[17] = tested on: Ab strain #296 (CDC and FDA AR Bank); conditions: Acinetobacter baumannii; Ab AR Bank #296
Protocol: as §1, §2

[18] = tested on: Ab strain #302 (CDC and FDA AR Bank); conditions: Acinetobacter baumannii; Ab AR Bank #302
Protocol: as §1, §2

[19] = tested on: Ab strain #303 (CDC and FDA AR Bank); conditions: Acinetobacter baumannii; Ab AR Bank #303
Protocol: as §1, §2

[20] = tested on: Ab strain #299 (CDC and FDA AR Bank); conditions: Acinetobacter baumannii; Ab AR Bank #299
Protocol: as §1, §2

[21] = tested on: Ab strain #281 (CDC and FDA AR Bank); conditions: Acinetobacter baumannii; Ab AR Bank #281
Protocol: as §1, §2

[22] = tested on: Ab strain #292 (CDC and FDA AR Bank); conditions: Acinetobacter baumannii; Ab AR Bank #292
Protocol: as §1, §2

[23] = tested on: Ab strain #285 (CDC and FDA AR Bank); conditions: Acinetobacter baumannii; Ab AR Bank #285
Protocol: as §1, §2

[24] = tested on: Ab strain #286 (CDC and FDA AR Bank); conditions: Acinetobacter baumannii; Ab AR Bank #286
Protocol: as §1, §2

[25] = tested on: Ab strain #301 (CDC and FDA AR Bank); conditions: Acinetobacter baumannii; Ab AR Bank #301
Protocol: as §1, §2

[26] = tested on: Ab strain #274 (CDC and FDA AR Bank); conditions: Acinetobacter baumannii; Ab AR Bank #274
Protocol: as §1, §2

[27] = tested on: Ab strain #283 (CDC and FDA AR Bank); conditions: Acinetobacter baumannii; Ab AR Bank #283
Protocol: as §1, §2

`O=C(NNc1cccc(F)c1)c1cnccn1` [Compound 9a] showed an MIC [1] of at most 0.13 µg/mL, an MIC [2] of 0.5 µg/mL (≈ 2.15 µM) and an MIC [3] of 0.5 µg/mL (≈ 2.15 µM). It also gave an MIC [4] of 0.5 µg/mL (≈ 2.15 µM), an MIC [5] of 0.5 µg/mL (≈ 2.15 µM) and an MIC [6] of 0.5 µg/mL (≈ 2.15 µM). For the same compound, the MIC [7] was 1 µg/mL (≈ 4.31 µM), the MIC [8] was 1 µg/mL (≈ 4.31 µM) and the MIC [9] was 0.25 µg/mL (≈ 1.08 µM). It also gave an MIC [10] of at most 0.13 µg/mL, an MIC [11] of 0.5 µg/mL (≈ 2.15 µM) and an MIC [12] of 1 µg/mL (≈ 4.31 µM). The MIC [13] was 0.5 µg/mL (≈ 2.15 µM), the MIC [14] was 0.5 µg/mL (≈ 2.15 µM) and the MIC [15] was 0.5 µg/mL (≈ 2.15 µM). The MIC [16] was 1 µg/mL (≈ 4.31 µM), the MIC [17] was at most 0.13 µg/mL and the MIC [18] was 0.25 µg/mL (≈ 1.08 µM). The MIC [19] was 0.25 µg/mL (≈ 1.08 µM), the MIC [20] was 0.25 µg/mL (≈ 1.08 µM) and the MIC [21] was 0.5 µg/mL (≈ 2.15 µM). The MIC [22] was 0.25 µg/mL (≈ 1.08 µM), the MIC [23] was 0.5 µg/mL (≈ 2.15 µM) and the MIC [24] was 1 µg/mL (≈ 4.31 µM). It also gave an MIC [25] of 0.25 µg/mL (≈ 1.08 µM), an MIC [26] of 1 µg/mL (≈ 4.31 µM) and an MIC [27] of 0.25 µg/mL (≈ 1.08 µM).
Work on `O=C(NNc1ccc(Cl)cc1)c1ccc(F)cn1` [Compound 3e] yielded an MIC [1] of 0.25 µg/mL (≈ 0.941 µM), an MIC [2] of 0.25 µg/mL (≈ 0.941 µM) and an MIC [3] of 0.25 µg/mL (≈ 0.941 µM). For the same compound, the MIC [4] was 0.25 µg/mL (≈ 0.941 µM), the MIC [5] was 0.5 µg/mL (≈ 1.88 µM) and the MIC [6] was 0.5 µg/mL (≈ 1.88 µM). For the same compound, the MIC [7] was 0.25 µg/mL (≈ 0.941 µM), the MIC [8] was 0.5 µg/mL (≈ 1.88 µM) and the MIC [9] was 0.13 µg/mL (≈ 0.489 µM). For the same compound, the MIC [10] was 0.5 µg/mL (≈ 1.88 µM), the MIC [11] was 0.5 µg/mL (≈ 1.88 µM) and the MIC [12] was 0.25 µg/mL (≈ 0.941 µM). For the same compound, the MIC [13] was 0.25 µg/mL (≈ 0.941 µM), the MIC [14] was 0.25 µg/mL (≈ 0.941 µM) and the MIC [15] was 0.5 µg/mL (≈ 1.88 µM). It also gave an MIC [16] of 0.25 µg/mL (≈ 0.941 µM), an MIC [17] of 0.06 µg/mL (≈ 0.226 µM) and an MIC [18] of 0.13 µg/mL (≈ 0.489 µM). The MIC [19] was 0.13 µg/mL (≈ 0.489 µM), the MIC [20] was 0.13 µg/mL (≈ 0.489 µM) and the MIC [21] was 0.5 µg/mL (≈ 1.88 µM). For the same compound, the MIC [22] was 0.25 µg/mL (≈ 0.941 µM), the MIC [23] was 0.13 µg/mL (≈ 0.489 µM) and the MIC [24] was 0.06 µg/mL (≈ 0.226 µM). For the same compound, the MIC [25] was 0.25 µg/mL (≈ 0.941 µM), the MIC [26] was 0.5 µg/mL (≈ 1.88 µM) and the MIC [27] was 0.5 µg/mL (≈ 1.88 µM).
